Laboratory results reported in patent US7507727B2, “Substituted quinobenzoxazine analogs and methods of using thereof” (Cylene Pharmaceuticals, Inc., priority 2003, dated 2009).

Biological target: c-Myc template DNA (c-myc quadruplex)
Test: Quadruplex binding / stop assay (Taq polymerase arrest, capillary electrophoresis)
Settings: read-out: Stop Data c-Myc μM; concentration at which 50% of the DNA was arrested (arrested:full-length 1:1)

Compound	IC50 [µM]
O=C(NCCN1CCOCC1)c1cn2c3c(c(NCCN4CCCC4)c(F)cc3c1=O)Oc1cc3ccccc3cc1-2 [compound 70]	2.5
CN1CCN(CCCNC(=O)c2cn3c4c(c(NCCN5CCCC5)c(F)cc4c2=O)Oc2cc4ccccc4cc2-3)CC1 [compound 71]	2.5
CN1CCCC1CCNC(=O)c1cn2c3c(c(NCCN4CCCC4)c(F)cc3c1=O)Oc1cc3ccccc3cc1-2 (centres unmarked) [compound 73]	2.5
O=C(NCCN1CCCC1)c1cn2c3c(c(NCCN4CCCC4)c(F)cc3c1=O)Oc1cc3ccccc3cc1-2 [compound 74]	2.5
CN(C)CCCCNc1c(F)cc2c(=O)c(C(=O)Nc3ccc(N(C)C)cc3)cn3c2c1Oc1c-3ccc2ccccc12 [compound 76]	2.5
N[C@@H]1CCN(c2c(F)cc3c(=O)c(C(=O)NCCN4CCOCC4)cn4c3c2Oc2c-4ccc3ccccc23)C1 [compound 77]	2.5
N[C@@H]1CCN(C(=O)c2cn3c4c(c(N5CC[C@@H](N)C5)c(F)cc4c2=O)Oc2c-3ccc3ccccc23)C1 [compound 78]	2.5
CN(C)c1ccc(NC(=O)c2cn3c4c(c(N5CC[C@@H](N)C5)c(F)cc4c2=O)Oc2c-3ccc3ccccc23)cc1 [compound 82]	2.5
N[C@@H]1CCN(C(=O)c2cn3c4c(c(NCCCN5CCOCC5)c(F)cc4c2=O)Oc2c-3ccc3ccccc23)C1 [compound 83]	2.5
N[C@@H]1CCN(C(=O)c2cn3c4c(c(NCCN5CCOCC5)c(F)cc4c2=O)Oc2c-3ccc3ccccc23)C1 [compound 84]	2.5
CN1CCCC1CCNc1c(F)cc2c(=O)c(C(=O)N3CC[C@@H](N)C3)cn3c2c1Oc1c-3ccc2ccccc12 (some centres unmarked) [compound 85]	2.5
N[C@@H]1CCN(C(=O)c2cn3c4c(c(NCCN5CCCC5)c(F)cc4c2=O)Oc2c-3ccc3ccccc23)C1 [compound 86]	2.5
CN1CCN(CCCNC(=O)c2cn3c4c(c(NC(=O)CCN5CCCC5)c(F)cc4c2=O)Oc2cc4ccccc4cc2-3)CC1 [compound 88]	2.5
CN1CCCC1CCNC(=O)c1cn2c3c(c(NC(=O)CCN4CCCC4)c(F)cc3c1=O)Oc1cc3ccccc3cc1-2 (centres unmarked) [compound 89]	2.5
O=C(CCN1CCCC1)Nc1c(F)cc2c(=O)c(C(=O)NCCN3CCCC3)cn3c2c1Oc1cc2ccccc2cc1-3 [compound 90]	2.5
CN1CCN(CCCNC(=O)c2cn3c4cc5c(=O)c6ccccc6c(=O)c5cc4oc4c(N5CCC(N)C5)c(F)cc(c2=O)c43)CC1 (centres unmarked) [compound 91]	2.5
CN1CCN(C(=O)c2cn3c4cc5c(=O)c6ccccc6c(=O)c5cc4oc4c(N5CCC(N)C5)c(F)cc(c2=O)c43)CC1 (centres unmarked) [compound 92]	2.5
CN1CCN(c2c(F)cc3c(=O)c(C(=O)N4CCC(N)C4)cn4c5cc6c(=O)c7ccccc7c(=O)c6cc5oc2c34)CC1 (centres unmarked) [compound 97]	2.5
COc1cccc(CCNc2c(F)cc3c(=O)c(C(=O)NCCC4CCCN4C)cn4c3c2Oc2cc3ccccc3cc2-4)c1OC (centres unmarked) [compound 100]	2.5

Compound	IC50 [µM]
CN1CCCC1CCNC(=O)c1cn2c3c(c(F)c(F)cc3c1=O)Oc1cc3ccccc3cc1-2 (centres unmarked) [compound 101]	2.25
N[C@@H]1CCN(c2c(F)cc3c(=O)c(C(=O)NCCCN4CCOCC4)cn4c3c2Oc2c-4ccc3ccccc23)C1 [compound 103]	1.8
CN1CCCC1CCNc1c(F)cc2c(=O)c(-c3nc4ccccc4s3)cn3c2c1Oc1cc2ccccc2cc1-3 (centres unmarked) [compound 114]	1.75
O=C(c1cn2c3c(c(NC4CCNC4)c(F)cc3c1=O)Oc1cc3ccccc3cc1-2)N1CCOCC1 (centres unmarked) [compound 116]	1.75
O=C(c1cn2c3c(c(NCCCNC4CCCCC4)c(F)cc3c1=O)Oc1cc3ccccc3cc1-2)N1CCOCC1 [compound 117]	1.75
O=C(Nc1nc2ccccc2s1)c1cn2c3c(c(NCCN4CCCC4)c(F)cc3c1=O)Oc1ccccc1-2 [compound 118]	1.75
CN1CCN(CCCNc2c(F)cc3c(=O)c(C(=O)NCCCN4CCOCC4)cn4c3c2Oc2cc3ccccc3cc2-4)CC1 [compound 119]	1.75
CC(C)(C)OC(=O)N[C@@H]1CCN(c2c(F)cc3c(=O)c(C(=O)NCCN4CCCC4)cn4c3c2Oc2cc3ccccc3cc2-4)C1 [compound 121]	1.75
CN(C)CCCCNC(=O)c1cn2c3c(c(NCCC4CCCN4C)c(F)cc3c1=O)Oc1cc3ccccc3cc1-2 (centres unmarked) [compound 125]	1.75
CN(C)CCCCNC(=O)c1cn2c3c(c(NCCCCN(C)C)c(F)cc3c1=O)Oc1cc3ccccc3cc1-2 [compound 126]	1.75
CN1CCN(CCCNC(=O)c2cn3c4c(c(NCCCN5CCOCC5)c(F)cc4c2=O)Oc2c-3ccc3ccccc23)CC1 [compound 127]	1.75
CN1CCCC1CCNC(=O)c1cn2c3c(c(NCCCN4CCOCC4)c(F)cc3c1=O)Oc1c-2ccc2ccccc12 (centres unmarked) [compound 128]	1.75
CN1CCN(CCCNC(=O)c2cn3c4c(c(NCCN5CCOCC5)c(F)cc4c2=O)Oc2c-3ccc3ccccc23)CC1 [compound 130]	1.75
CN1CCCC1CCNC(=O)c1cn2c3c(c(NCCN4CCOCC4)c(F)cc3c1=O)Oc1c-2ccc2ccccc12 (centres unmarked) [compound 131]	1.75
CC(C)(C)OC(=O)N[C@@H]1CCN(c2c(F)cc3c(=O)c(C(=O)NCCN4CCCC4)cn4c3c2Oc2c-4ccc3ccccc23)C1 [compound 133]	1.75
CN(C)c1ccc(NC(=O)c2cn3c4c(c(NCCC5CCCN5C)c(F)cc4c2=O)Oc2c-3ccc3ccccc23)cc1 (centres unmarked) [compound 136]	1.75
CN1CCCC1CCNC(=O)c1cn2c3c(c(NCCN4CCCC4)c(F)cc3c1=O)Oc1c-2ccc2ccccc12 (centres unmarked) [compound 138]	1.75
O=C(NCCN1CCCC1)c1cn2c3c(c(NCCN4CCCC4)c(F)cc3c1=O)Oc1c-2ccc2ccccc12 [compound 139]	1.75

Further compounds by falling IC50, results first:

IC50 [µM]	Compound
2.5	CN(C)CCCCNC(=O)c1cn2c3c(c(N4CC[C@@H](NC(=O)OC(C)(C)C)C4)c(F)cc3c1=O)Oc1cc3ccccc3cc1-2 [compound 66]
2.5	CN1CCCC1CCNc1c(F)cc2c(=O)c(C(=O)NCCN3CCOCC3)cn3c2c1Oc1cc2ccccc2cc1-3 (centres unmarked) [compound 67]
2.5	CN1CCCC1CCNc1c(F)cc2c(=O)c(C(=O)N3CC[C@@H](NC(=O)OC(C)(C)C)C3)cn3c2c1Oc1cc2ccccc2cc1-3 (some centres unmarked) [compound 68]
2.5	O=C(NCCCN1CCOCC1)c1cn2c3c(c(NCCN4CCCC4)c(F)cc3c1=O)Oc1cc3ccccc3cc1-2 [compound 69]
2.5	CC(C)(C)OC(=O)N[C@@H]1CCN(C(=O)c2cn3c4c(c(NCCN5CCCC5)c(F)cc4c2=O)Oc2cc4ccccc4cc2-3)C1 [compound 72]
2.5	CN1CCN(C(=O)c2cn3c4c(c(NCCC5CCCN5C)c(F)cc4c2=O)Oc2c-3ccc3ccccc23)CC1 (centres unmarked) [compound 75]
2.5	N[C@@H]1CCN(c2c(F)cc3c(=O)c(C(=O)N4CCOCC4)cn4c3c2Oc2c-4ccc3ccccc23)C1 [compound 79]
2.5	CN(CCc1ccccn1)C(=O)c1cn2c3c(c(N4CC[C@@H](N)C4)c(F)cc3c1=O)Oc1c-2ccc2ccccc12 [compound 80]
2.5	CN1CCN(C(=O)c2cn3c4c(c(N5CC[C@@H](N)C5)c(F)cc4c2=O)Oc2c-3ccc3ccccc23)CC1 [compound 81]
2.5	CN1CCCC1CCNc1c(F)cc2c(=O)c(C(=O)NCCN3CCCC3)cn3c2c1Oc1cc2c(cc1-3)oc1ccccc12 (centres unmarked) [compound 87]
2.5	CN1CCCC1CCNc1c(F)cc2c(=O)c(C(=O)N3CCC(N)C3)cn3c4cc5c(=O)c6ccccc6c(=O)c5cc4oc1c23 (centres unmarked) [compound 93]
2.5	NC1CCN(C(=O)c2cn3c4cc5c(=O)c6ccccc6c(=O)c5cc4oc4c(NCCCN5CCOCC5)c(F)cc(c2=O)c43)C1 (centres unmarked) [compound 94]
2.5	CN1CCN(CCCNc2c(F)cc3c(=O)c(C(=O)N4CCC(N)C4)cn4c5cc6c(=O)c7ccccc7c(=O)c6cc5oc2c34)CC1 (centres unmarked) [compound 95]
2.5	CN(C)CCCCNc1c(F)cc2c(=O)c(C(=O)N3CCC(N)C3)cn3c4cc5c(=O)c6ccccc6c(=O)c5cc4oc1c23 (centres unmarked) [compound 96]
2.5	CN(C)/C=N/C1CCN(c2c(F)cc3c(=O)c(C(=O)NCCC4CCCN4C)cn4c3c2Oc2cc3ccccc3cc2-4)C1 (centres unmarked) [compound 98]
2.5	NCc1cn2c3c(c(N4CCC(N)C4)c(F)cc3c1=O)Oc1cc3ccccc3cc1-2 (centres unmarked) [compound 99]
1.75	O=C(NCCN1CCCC1)c1cn2c3c(c(F)c(F)cc3c1=O)Oc1cc3c(cc1-2)oc1ccccc13 [compound 113]
1.75	O=C(c1cn2c3c(c(NCCN4CCCCC4)c(F)cc3c1=O)Oc1cc3ccccc3cc1-2)N1CCOCC1 [compound 115]
1.75	CN1CCCC1CCNC(=O)c1cn2c3c(c(N4CC[C@@H](NC(=O)OC(C)(C)C)C4)c(F)cc3c1=O)Oc1cc3ccccc3cc1-2 (some centres unmarked) [compound 120]
1.75	CN1CCCC1CCNc1c(F)cc2c(=O)c(C(=O)NCCCN3CCOCC3)cn3c2c1Oc1cc2ccccc2cc1-3 (centres unmarked) [compound 122]
1.75	CN1CCN(CCCNC(=O)c2cn3c4c(c(NCCC5CCCN5C)c(F)cc4c2=O)Oc2cc4ccccc4cc2-3)CC1 (centres unmarked) [compound 123]
1.75	CN1CCCC1CCNC(=O)c1cn2c3c(c(NCCC4CCCN4C)c(F)cc3c1=O)Oc1cc3ccccc3cc1-2 (centres unmarked) [compound 124]
1.75	CN(C)CCCCNC(=O)c1cn2c3c(c(NCCCN4CCOCC4)c(F)cc3c1=O)Oc1c-2ccc2ccccc12 [compound 129]
1.75	CN1CCCC1CCNC(=O)c1cn2c3c(c(N4CC[C@@H](NC(=O)OC(C)(C)C)C4)c(F)cc3c1=O)Oc1c-2ccc2ccccc12 (some centres unmarked) [compound 132]
1.75	CN1CCCC1CCNc1c(F)cc2c(=O)c(C(=O)NCCN3CCOCC3)cn3c2c1Oc1c-3ccc2ccccc12 (centres unmarked) [compound 134]
1.75	CN1CCCC1CCNc1c(F)cc2c(=O)c(C(=O)NCCCn3ccnc3)cn3c2c1Oc1c-3ccc2ccccc12 (centres unmarked) [compound 135]
1.75	O=C(NCCCN1CCOCC1)c1cn2c3c(c(NCCN4CCCC4)c(F)cc3c1=O)Oc1c-2ccc2ccccc12 [compound 137]
1.75	O=C(NCCCn1ccnc1)c1cn2c3c(c(NCCN4CCCC4)c(F)cc3c1=O)Oc1c-2ccc2ccccc12 [compound 140]
